Like-named read-outs stand apart in the source and are kept apart here.
Columns and labels:
[1] = test system: interferon (α) (IFN-α) induction in human peripheral blood mononuclear cells (PBMC); test: Cytokine induction in human cells (PBMC): IFN-α secreted into culture media, ELISA; assay type: cell-based; details: read-out: Minimum Effective Concentration (μM) IFN
Description: (§1) Cytokine Induction in Human Cells
(§2) An in vitro human blood cell system is used to assess cytokine induction. Activity is based on the measurement of interferon (α) and tumor necrosis factor (α) (IFN-α and TNF-α, respectively) secreted into culture media as described by Testerman et. al. in “Cytokine Induction by the Immunomodulators Imiquimod and S-27609”, Journal of Leukocyte Biology, 58, 365-372 (September, 1995).
(§3) Blood Cell Preparation for Culture
(§4) Whole blood from healthy human donors is collected by venipuncture into vacutainer tubes or syringes containing EDTA. Peripheral blood mononuclear cells (PBMC) are separated from whole blood by density gradient centrifugation using HISTOPAQUE-1077 (Sigma, St. Louis, Mo.) or Ficoll-Paque Plus (Amersham Biosciences Piscataway, N.J.). Blood is diluted 1:1 with Dulbecco's Phosphate Buffered Saline (DPBS) or Hank's Balanced Salts Solution (HBSS). Alternately, whole blood is placed in Accuspin (Sigma) or LeucoSep (Greiner Bio-One, Inc., Longwood, Fla.) centrifuge frit tubes containing density gradient medium. The PBMC layer is collected and washed twice with DPBS or HBSS and re-suspended at 4×10^6 cells/mL in RPMI complete. The PBMC suspension is added to 96 well flat bottom sterile tissue culture plates containing an equal volume of RPMI complete media containing test compound.
(§5) The compounds are solubilized in dimethyl sulfoxide (DMSO). The DMSO concentration should not exceed a final concentration of 1% for addition to the culture wells. The compounds are generally tested at concentrations ranging from 30-0.014 μM. Controls include cell samples with media only, cell samples with DMSO only (no compound), and cell samples with reference compound.
(§6) The solution of test compound is added at 60 μM to the first well containing RPMI complete and serial 3 fold dilutions are made in the wells. The PBMC suspension is then added to the wells in an equal volume, bringing the test compound concentrations to the desired range (usually 30-0.014 μM). The final concentration of PBMC suspension is 2×10^6 cells/mL. The plates are covered with sterile plastic lids, mixed gently and then incubated for 18 to 24 hours at 37° C. in a 5% carbon dioxide atmosphere.
(§7) Following incubation the plates are centrifuged for 10 minutes at 1000 rpm (approximately 200×g) at 4° C. The cell-free culture supernatant is removed and transferred to sterile polypropylene tubes. Samples are maintained at −30 to −70° C. until analysis. The samples are analyzed for IFN-α by ELISA and for TNF-α by IGEN/BioVeris Assay.
(§8) Interferon (α) and Tumor Necrosis Factor (α) Analysis
IFN-α concentration is determined with a human multi-subtype calorimetric sandwich ELISA (Catalog Number 41105) from PBL Biomedical Laboratories, Piscataway, N.J. Results are expressed in pg/mL.
(§9) In total, the data output of the assay consists of concentration values of TNF-α and IFN-α (y-axis) as a function of compound concentration (x-axis).
Analysis of the data has two steps. First, the greater of the mean DMSO (DMSO control wells) or the experimental background (usually 20 pg/mL for IFN-α and 40 pg/mL for TNF-α) is subtracted from each reading. If any negative values result from background subtraction, the reading is reported as “*”, and is noted as not reliably detectable. In subsequent calculations and statistics, “*”, is treated as a zero. Second, all background subtracted values are multiplied by a single adjustment ratio to decrease experiment to experiment variability. The adjustment ratio is the area of the reference compound in the new experiment divided by the expected area of the reference compound based on the past 61 experiments (unadjusted readings). […] The reference compound used is 2-[4-amino-2-ethoxymethyl-6,7,8,9-tetrahydro-α,α-dimethyl-1H-imidazo[4,5-c]quinolin-1-yl]ethanol hydrate (U.S. Pat. No. 5,352,784; Example 91) and the expected area is the sum of the median dose values from the past 61 experiments. […]

[2] = test system: tumor necrosis factor (α) (TNF-α) induction in human peripheral blood mononuclear cells (PBMC); test: Cytokine induction in human cells (PBMC): TNF-α secreted into culture media, ORIGEN M-Series immunoassay; assay type: cell-based; details: for minimal effective concentration: Homo sapiens, PBMC, read-out: Minimum Effective Concentration (μM) TNF; for Maximal Response (pg/mL) TNF: background-subtracted
Description: as §1, §2, §3, §4, §5, §6, §7, §8
The TNF-α concentration is determined by ORIGEN M-Series Immunoassay and read on an IGEN M-8 analyzer from BioVeris Corporation, formerly known as IGEN International, Gaithersburg, Md. The immunoassay uses a human TNF-α capture and detection antibody pair (Catalog Numbers AHC3419 and AHC3712) from Biosource International, Camarillo, Calif. Results are expressed in pg/mL.
as §9
Analysis of the data has two steps. First, the greater of the mean DMSO (DMSO control wells) or the experimental background (usually 20 pg/mL for IFN-α and 40 pg/mL for TNF-α) is subtracted from each reading. If any negative values result from background subtraction, the reading is reported as “*”, and is noted as not reliably detectable. In subsequent calculations and statistics, “*”, is treated as a zero. Second, all background subtracted values are multiplied by a single adjustment ratio to decrease experiment to experiment variability. The adjustment ratio is the area of the reference compound in the new experiment divided by the expected area of the reference compound based on the past 61 experiments (unadjusted readings). […]

[3] = lowest tested concentration inducing IFN-α over 20 pg/mL, median where more than one experiment
[4] = lowest tested concentration inducing TNF-α over 40 pg/mL, median where more than one experiment
[5] = maximal response in dose response curve, reference-adjusted, median where more than one experiment, * = below background of 40 pg/mL

| melting point [°C] | SMILES | minimal effective concentration [1, 3] [µM] | minimal effective concentration [2, 4] [µM] | minimal effective concentration ([1]; 18 to 24 hours incubation, tested 30-0.014 μM, lowest concentration inducing response over 20 pg/mL IFN-α, median of # experiments) [µM] | Maximal Response (pg/mL) TNF ([2]; 18 to 24 hours incubation, reference-adjusted maximal response of dose response curve, median of # experiments) | minimal effective concentration ([2]; 18 to 24 hours incubation, tested 30-0.014 μM, lowest concentration inducing response over 40 pg/mL TNF-α, median of # experiments) [µM] | Maximal Response (pg/mL) TNF [2, 5] |
| --- | --- | --- | --- | --- | --- | --- | --- |
| 231 to 232 | Cc1ccc(S(=O)(=O)NCCCn2c(CCO)nc3c(N)nc4ccccc4c32)cc1 [Example 1, N-{3-[4-Amino-2-(2-hydroxyethyl)-1H-imidazo[4,5-c]quinolin-1-yl]propyl}-4-methylbenzenesulfonamide] | 0.37 | 10 | – | – | – | – |
| 245 to 246 | Nc1nc2ccccc2c2c1nc(CCO)n2CCCNC(=O)c1cc2ccccc2cn1 [Example 2, N-{3-[4-Amino-2-(2-hydroxyethyl)-1H-imidazo[4,5-c]quinolin-1-yl]propyl}isoquinoline-3-carboxamide] | 3.33 | 3.33 | – | – | – | – |

Continued, molecule first:

| SMILES | melting point [°C] | minimal effective concentration [1, 3] [µM] | minimal effective concentration [2, 4] [µM] | minimal effective concentration ([1]; 18 to 24 hours incubation, tested 30-0.014 μM, lowest concentration inducing response over 20 pg/mL IFN-α, median of # experiments) [µM] | Maximal Response (pg/mL) TNF ([2]; 18 to 24 hours incubation, reference-adjusted maximal response of dose response curve, median of # experiments) | minimal effective concentration ([2]; 18 to 24 hours incubation, tested 30-0.014 μM, lowest concentration inducing response over 40 pg/mL TNF-α, median of # experiments) [µM] | Maximal Response (pg/mL) TNF [2, 5] |
| --- | --- | --- | --- | --- | --- | --- | --- |
| CC(C)(Cn1c(CCO)nc2c(N)nc3ccccc3c21)NS(C)(=O)=O [Example 6, N-{2-[4-Amino-2-(2-hydroxyethyl)-1H-imidazo[4,5-c]quinolin-1-yl]-1,1-dimethylethyl}methanesulfonamide] | 209 to 212 | 1.11 | 30 | 1.11 | * (TNF below experimental background of 40 pg/mL.) | > 30 | * (TNF below experimental background of 40 pg/mL.) |
| CC(C)(N)Cn1c(CO)nc2c(N)nc3ccccc3c21 [Example 4, 1-(2-Amino-2-methylpropyl)-2-hydroxymethyl-1H-imidazo[4,5-c]quinolin-4-amine] | 248 to 250 | 0.37 | 3.33 | – | – | – | – |
| CC(C)NC(=O)NC(C)(C)Cn1c(CO)nc2c(N)nc3ccccc3c21 [Example 142, 1-[2-(4-Amino-2-hydroxymethyl-1H-imidazo[4,5-c]quinolin-1-yl)-1,1-dimethylethyl]-3-(1-methylethyl)urea] | 196 to 199 | 1.11 | > 30 | – | – | – | * (TNF below experimental background of 40 pg/mL.) |

From US8178677B2, “Hydroxyalkyl substituted imidazoquinolines” (3M Innovative Properties Company, priority 2005, dated 2012)
